Assay results from patent publication US10532065B2, “Bisphosphonic acid derivative and application for same” (NAGASAKI UNIVERSITY, priority 2014, dated 2020).
Several values for one entry are separate records, joined by “and”; a condition that tells them apart may be missing. Equal entries are not always repeated. Where two headings read alike, the source gives them in different places.

What was measured:
Assay type in all cases: cell-based
[1] = tested on: U937 cells; experiment: U937 cell growth inhibition (direct antitumor action, CellTiterGlo); conditions: for IC50: U937 cell growth inhibition, 4 days culture; for direct antitumor activity (in words): U937 growth inhibition
Description: (§1) The direct antitumor action of bisphosphonic acid POM ester and bisphosphonic acid was studied by comparison using U937.
(§2) The direct antitumor action of various bisphosphonic acid POM esters was studied by comparison using U937 and EJ-1. The measurement was performed according to Experimental Example 2 and Experimental Example 4.

[2] = tested on: EJ-1 cells; experiment: EJ-1 cell growth inhibition (direct antitumor action, CellTiterGlo); conditions: for IC50: EJ-1 (bladder cancer) growth inhibition, 4 days culture; for direct antitumor activity (in words): EJ-1 growth inhibition
Description: as §1
(§3) The direct antitumor action of bisphosphonic acid POM ester derivatives and bisphosphonic acids was studied by comparison using EJ-1. It was performed in the same manner as in Experimental Example 1 except that EJ-1 was used as the cell to be used. For recovery of the cells, a conventional EDTA trypsin treatment was performed.
as §3, with “POM esters” for “POM ester derivatives”, “Example 2” for “Example 1”
as §2

[3] = tested on: EJ-1 cells / γδ T cells; experiment: TNF-α production from γδ T cells stimulated by compound-pretreated EJ-1 cells (indirect antitumor action, ELISA); conditions: for EC50: EJ-1 pretreated 4 hr with compound, 16 hr with γδ T cells, TNF-α ELISA, read-out: TNF-α50; for TNF-α production induction activity (in words): EJ-1 pretreated with compound, γδ T cells
Description: The indirect antitumor action of bisphosphonic acid POM esters and bisphosphonic acids was studied by comparison using EJ-1. In principle, EJ-1 is treated with a compound, washed, and reacted with γδ T cells, and the cytotoxic ability is studied by comparison, by quantifying TNF-α produced by γδ T cells during cell disordering. TNF-α is generally used as an index of γδ T cell induction ability and/or proliferative capacity, and γδ T cells are considered to be induced and/or proliferated in proportion to the TNF-α amount (Journal of Immunology, 154, 5986-5994 (1995)). Since the produced TNF-α is what is called a tumor necrosis factor, it is considered to have an action to lower proliferation of cancer cells or induce cell death.
Thereto was added a solution (500 μl) of compounds 3, 5, 6, 7, which are bisphosphonic acid POM ester derivatives, obtained by serially diluting 10 mM stock solution 10-fold from 20 μM, or a solution (500 μl) of bisphosphonic acid 10, 12, 13, 14 compound obtained by serially diluting 10-fold from 200 μM, and the cells were suspended well. These conical tubes were stood at 37° C. for 4 hr, and the cells were washed 3 times with 5 ml of culture medium. To these cells was added 500 μl of medium, and the cells were suspended well. […] The cell culture medium was suspended well, and the plate was centrifuged at 1,700 rpm, 4° C. for 2 min and the culture supernatant (150 μl) was taken and placed in another round-bottomed 96 well plate. The plate was frozen at −80° C. overnight, left standing at room temperature for 1 hr, stirred well and 100 μl thereof was subjected to ELISA of TNF-α. The content of TNF-α was calculated from the analytical curve of TNF-α. These were performed in triplicate, and a graph showing bisphosphonic acid POM ester derivative and the corresponding bisphosphonic acid as one pair was plotted. […] The results of bisphosphonic acid POM ester derivative are shown by -●-, and the results of bisphosphonic acid are shown by -◯-.
The indirect antitumor action of bisphosphonic acid POM esters and bisphosphonic acids was quantitatively studied by comparison using EJ-1. […] Thereto was added a solution (500 μl) of a bisphosphonic acid POM ester derivative obtained by serially diluting 10 mM stock solution 10-fold from 20 μM, or a bisphosphonic acid solution (500 μl) serially diluted 10-fold from 200 μM was added, and the cells were suspended well. These conical tubes were stood at 37° C. for 4 hr, and the cells were washed 3 times with 5 ml of culture medium. To these cells was added 500 μl of medium, and the cells were suspended well. […] The cell culture medium was suspended well, and the plate was centrifuged at 1,700 rpm, 4° C. for 2 min and the culture supernatant (150 μl) was taken and placed in another round-bottomed 96 well plate. The plate was frozen at −80° C. overnight, left standing at room temperature for 1 hr, stirred well and 100 μl thereof was subjected to ELISA of TNF-α. The content of TNF-α was calculated from the analytical curve of TNF-α. These were performed in triplicate, and a half of the concentration of compounds 1-7, which are bisphosphonic acid POM ester derivatives, and compounds 8-14, which are bisphosphonic acids, necessary for producing the maximum amount of TNF-α from γδ T cells was calculated as TNF-α50, and summarized in Table 6.
Therefore, the TNF-α50 value of various bisphosphonic acid POM ester derivatives was calculated. […] Thereto was added a solution (500 μl) of compounds 1-7 and 15-39, which are bisphosphonic acid POM ester derivatives, and compound 42, which is other bisphosphonic acid ester derivative, obtained by serially diluting 10 mM stock solution 10-fold from 20 μM, and the cells were suspended well. These conical tubes were stood at 37° C. for 4 hr, and the cells were washed 3 times with 5 ml of culture medium. To these cells was added 500 μl of medium, and the cells were suspended well. […]

| SMILES | IC50 [1] | IC50 [2] | EC50 [3] | IC50 ([1]; Homo sapiens, U-937, 96 h) | IC50 ([2]; EJ1, 96 h) | EC50 ([3]; EJ1) | direct antitumor activity (in words) [1] | direct antitumor activity (in words) [2] | TNF-α production induction activity (in words) [3] |
| --- | --- | --- | --- | --- | --- | --- | --- | --- | --- |
| CC(C)(C)C(=O)OCOP(=O)(OCOC(=O)C(C)(C)C)C(CNc1ccc(Br)cn1)P(=O)(OCOC(=O)C(C)(C)C)OCOC(=O)C(C)(C)C [Compound 4, tetrakispivaloyloxymethyl 2-(5-bromopyridin-2-ylamino)ethylidene-1,1-bisphosphonate] | 3.6 µM | 7.8 µM | 0.7 µM |  |  |  |  |  |  |
| Cc1cc(NCC(P(=O)(OCOC(=O)C(C)(C)C)OCOC(=O)C(C)(C)C)P(=O)(OCOC(=O)C(C)(C)C)OCOC(=O)C(C)(C)C)no1 [Compound 37, tetrakispivaloyloxymethyl 2-(5-methylisoxazol-3-ylamino)ethylidene-1,1-bisphosphonate] | 7.9 µM | 16 µM | > 10 µM |  |  |  |  |  |  |
| CC(C)(C)C(=O)OCOP(=O)(OCOC(=O)C(C)(C)C)C(CNc1nncs1)P(=O)(OCOC(=O)C(C)(C)C)OCOC(=O)C(C)(C)C [Compound 38, tetrakispivaloyloxymethyl 2-(1,3,4-thiadiazol-2-ylamino)ethylidene-1,1-bisphosphonate] | 11 µM | 8.5 µM | 1.9 µM |  |  |  |  |  |  |
| CCCCCCCCc1ccc(NCC(P(=O)(OCOC(=O)C(C)(C)C)OCOC(=O)C(C)(C)C)P(=O)(OCOC(=O)C(C)(C)C)OCOC(=O)C(C)(C)C)nc1 [Compound 22, tetrakispivaloyloxymethyl 2-(5-octanylpyridin-2-ylamino)ethylidene-1,1-bisphosphonate] | 3.4 µM | 3.7 µM | 4.8 µM |  |  |  |  |  |  |
| O=P(O)(O)C(CNc1ncccn1)P(=O)(O)O [Compound 13, 2-(pyrimidin-2-ylamino)ethylidene-1,1-bisphosphonic Acid, reference compound] |  |  |  | 150 µM | 23 µM | 48 µM |  |  |  |
| CN(CC(P(=O)(OCOC(=O)C(C)(C)C)OCOC(=O)C(C)(C)C)P(=O)(OCOC(=O)C(C)(C)C)OCOC(=O)C(C)(C)C)c1ccccn1 [Compound 1, tetrakispivaloyloxymethyl 2-(methylpyridin-2-ylamino)ethylidene-1,1-bisphosphonate] | 5.3 µM | 11 µM | 0.55 µM |  |  |  |  |  |  |
| CCCCCCCCc1cccnc1NCC(P(=O)(OCOC(=O)C(C)(C)C)OCOC(=O)C(C)(C)C)P(=O)(OCOC(=O)C(C)(C)C)OCOC(=O)C(C)(C)C [Compound 23, tetrakispivaloyloxymethyl 2-(3-octanylpyridin-2-ylamino)ethylidene-1,1-bisphosphonate] | 3.5 µM | 4.5 µM | 3.4 µM |  |  |  |  |  |  |
| O=P(O)(O)C(CNc1ccc(F)cn1)P(=O)(O)O [Compound 12, 2-(5-fluoropyridin-2-ylamino)ethylidene-1,1-bisphosphonic Acid, reference compound] |  |  |  | 68 µM | 260 µM | 49 µM |  |  |  |
| CC(C)(C)C(=O)OCOP(=O)(OCOC(=O)C(C)(C)C)C(CNc1ccc(Cl)cn1)P(=O)(OCOC(=O)C(C)(C)C)OCOC(=O)C(C)(C)C [Compound 18, tetrakispivaloyloxymethyl 2-(5-chloropyridin-2-ylamino)ethylidene-1,1-bisphosphonate] | 3.3 µM | 4.8 µM | 0.38 µM |  |  |  |  |  |  |
| Cc1ccc(NCC(P(=O)(OCOC(=O)C(C)(C)C)OCOC(=O)C(C)(C)C)P(=O)(OCOC(=O)C(C)(C)C)OCOC(=O)C(C)(C)C)nc1 [Compound 3, tetrakispivaloyloxymethyl 2-(5-methylpyridin-2-ylamino)ethylidene-1,1-bisphosphonate] | 5.6 µM | 5.4 µM | 0.48 µM |  |  |  |  |  |  |
| CC(C)(C)C(=O)OCOP(=O)(OCOC(=O)C(C)(C)C)C(CNc1ccon1)P(=O)(OCOC(=O)C(C)(C)C)OCOC(=O)C(C)(C)C [Compound 36, tetrakispivaloyloxymethyl 2-(isoxazol-3-ylamino)ethylidene-1,1-bisphosphonate] | 7.9 µM | 15 µM | 8 µM |  |  |  |  |  |  |
| O=P(O)(O)C(CNc1ccc(Br)cn1)P(=O)(O)O [Compound 11, 2-(5-bromopyridin-2-ylamino)ethylidene-1,1-bisphosphonic Acid, reference compound] |  |  |  | 200 µM | 290 µM | > 100 µM |  |  |  |

Further lines, with some results ahead:

| IC50 [1] | IC50 [2] | EC50 [3] | IC50 ([1]; Homo sapiens, U-937, 96 h) | IC50 ([2]; EJ1, 96 h) | EC50 ([3]; EJ1) | SMILES | direct antitumor activity (in words) [1] | direct antitumor activity (in words) [2] | TNF-α production induction activity (in words) [3] |
| --- | --- | --- | --- | --- | --- | --- | --- | --- | --- |
| 6.7 µM | 9.5 µM | > 10 µM |  |  |  | CC(C)(C)C(=O)OCOP(=O)(OCOC(=O)C(C)(C)C)C(CNc1ccc(-c2ccccc2)cn1)P(=O)(OCOC(=O)C(C)(C)C)OCOC(=O)C(C)(C)C [Compound 19, tetrakispivaloyloxymethyl 2-(5-phenylpyridin-2-ylamino)ethylidene-1,1-bisphosphonate] |  |  |  |
| 8.9 µM | 13 µM | 4.6 µM |  |  |  | CC(C)(C)C(=O)OCOP(=O)(OCOC(=O)C(C)(C)C)C(CNc1ncccc1O)P(=O)(OCOC(=O)C(C)(C)C)OCOC(=O)C(C)(C)C [Compound 27, tetrakispivaloyloxymethyl 2-(3-hydroxypyridin-2-ylamino)ethylidene-1,1-bisphosphonate] |  |  |  |
| 7.1 µM | 16 µM | > 10 µM |  |  |  | CC(C)(C)C(=O)OCOP(=O)(OCOC(=O)C(C)(C)C)C(CNc1ncccc1OCc1ccccc1)P(=O)(OCOC(=O)C(C)(C)C)OCOC(=O)C(C)(C)C [Compound 15, tetrakispivaloyloxymethyl 2-(3-benzyloxypyridin-2-ylamino)ethylidene-1,1-bisphosphonate] |  |  |  |
| 0.68 µM | 2.3 µM | 4.5 µM |  |  |  | CC(C)(C)C(=O)OCOP(=O)(OCOC(=O)C(C)(C)C)C(CNc1ncccc1Br)P(=O)(OCOC(=O)C(C)(C)C)OCOC(=O)C(C)(C)C [Compound 2, tetrakispivaloyloxymethyl 2-(3-bromopyridin-2-ylamino)ethylidene-1,1-bisphosphonate] | high activity | high activity |  |
| 2.4 µM | 0.09 µM | 0.08 µM |  |  |  | CC(C)(C)C(=O)OCOP(=O)(OCOC(=O)C(C)(C)C)C(CNc1ncccn1)P(=O)(OCOC(=O)C(C)(C)C)OCOC(=O)C(C)(C)C [Compound 6, tetrakispivaloyloxymethyl 2-(pyrimidin-2-ylamino)ethylidene-1,1-bisphosphonate] | high activity | high activity | high activity |
| 5.3 µM | 4.8 µM and 5.7 µM | 0.069 µM |  |  |  | CC(C)(C)C(=O)OCOP(=O)(OCOC(=O)C(C)(C)C)C(CNc1ccc(F)cn1)P(=O)(OCOC(=O)C(C)(C)C)OCOC(=O)C(C)(C)C [Compound 5, tetrakispivaloyloxymethyl 2-(5-fluoropyridin-2-ylamino)ethylidene-1,1-bisphosphonate] |  |  | high activity |
